The source of these data is publication PMC5970223, “Multiplexed profiling of GPCR activities by combining split TEV assays and EXT-based barcoded readouts” (Scientific Reports, 2018).

Where a name gives a salt, the structure may show the parent alone. Read-outs that look alike come from different tables or passages of the source.

The term IC50 denotes the concentration that gives 50% inhibition.

One test deals with HTR2A serotonin receptor (Homo sapiens, UniProt P28223). As to the kind of experiment: single GPCR split TEV assay, luciferase readout (β-arrestin2 recruitment). The format is cell-based. The following applies: standard single luciferase GPCR split TEV assay, validation (Fig. 4f); read-out: IC50 of HTR2A receptor inhibition. An excerpt:
(§1) GPCR split TEV assays allow monitoring ligand-dependent GPCR activities using the stimulation-dependent interaction of β-arrestin2 and a candidate GPCR. […] To do this, the NTEV fragment and the artificial transcription factor GAL4-VP16 (GV) were fused to the C-terminal end of a candidate GPCR, separated by a TEV cleavage site (tevS) (Fig. 1a,b). To improve the stability of the interaction between a given GPCR and the arrestin, a short sequence from the C-terminal end of the human arginine vasopressin receptor 2 (AVPR2) (abbreviated V2R) was introduced between a candidate GPCR and NTEV[17],[27]. V2R contains multiple phosphorylation sites for GRKs. These sites provide, when phosphorylated, enhanced binding of β-arrestin.
For these assays, cells were transiently transfected with GPCR split TEV components and reporters, which were allowed to express for 20 h. […] For antagonistic assays, compounds were added 1 h before agonist to ensure proper incubation (Supplementary Fig. S1b). For clarity, varying experimental conditions, such as plate formats, for applied assay formats are summarized in Supplementary Table S3.
For luciferase assays cells were plated on 96-well white plates at 4 × 10^4 cells/well (PC12) one day before the experiment. The assays were performed with 6 wells as replicates per condition. […]
On the technique in general: Recruitment of arrestin is a read-out of receptor activation apart from second messengers.

The target in test [1] is T1, dopamine receptor DRD2 (Homo sapiens, UniProt P14416). In words: standard single luciferase GPCR split TEV assay. The class given is cell-based. Particulars: validation (Fig. 4e), read-out: IC50 of DRD2 receptor inhibition.
T1 sequence (P14416 1-414 isoform P14416-2): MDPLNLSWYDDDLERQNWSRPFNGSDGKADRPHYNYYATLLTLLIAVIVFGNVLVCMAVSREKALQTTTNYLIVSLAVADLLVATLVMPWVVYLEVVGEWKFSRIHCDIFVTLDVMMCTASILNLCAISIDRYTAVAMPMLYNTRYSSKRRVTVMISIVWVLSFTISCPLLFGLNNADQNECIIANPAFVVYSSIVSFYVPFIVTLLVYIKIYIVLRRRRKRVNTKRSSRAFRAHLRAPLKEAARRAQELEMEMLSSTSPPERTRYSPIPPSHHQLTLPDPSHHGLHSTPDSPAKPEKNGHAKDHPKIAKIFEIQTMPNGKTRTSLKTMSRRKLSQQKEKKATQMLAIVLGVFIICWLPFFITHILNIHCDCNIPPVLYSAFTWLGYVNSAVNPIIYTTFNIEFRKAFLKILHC
Text: as §1
For luciferase assays cells were plated on 96-well white plates at 4 × 10^4 cells/well (PC12) one day before the experiment. The assays were performed with 6 wells as replicates per condition. […] Plasmids and lipofectamine 2000 transfection reagent (Invitrogen) were diluted in opti-MEM (Gibco) and incubated for 20 min at room temperature. Medium was removed from cells, the transfection-mix was added and the plates incubated for 2 h at 37 °C, followed by the adding of double-volume of culture medium to dilute transfection reagents. […]

For test [2], the target named is T1, dopamine receptor DRD2. In words: multiplexed GPCRprofiler assay in U2OS cells. The format is cell-based.
The target of test [3] is T2, serotonin receptor HTR2A (Homo sapiens, UniProt P28223). As to the kind of experiment: multiplexed GPCRprofiler assay in U2OS cells. The following applies: for agonistic effect on HTR2A (drug alone): drug only for 6 h, subtle = less than 2-fold change, three consecutive increases. The format is cell-based. As for the experimental part: (§2) Two hours after transfection, all cell populations were pooled, mixed, and evenly divided into fractions for plating onto assay dishes (Fig. 2a). The cells were cultured and stimulated under identical conditions for agonist or antagonist assays as initially described for GPCR split TEV assays (Supplementary Fig. S1a,b).
T2 sequence (P28223 81-471 limits assumed): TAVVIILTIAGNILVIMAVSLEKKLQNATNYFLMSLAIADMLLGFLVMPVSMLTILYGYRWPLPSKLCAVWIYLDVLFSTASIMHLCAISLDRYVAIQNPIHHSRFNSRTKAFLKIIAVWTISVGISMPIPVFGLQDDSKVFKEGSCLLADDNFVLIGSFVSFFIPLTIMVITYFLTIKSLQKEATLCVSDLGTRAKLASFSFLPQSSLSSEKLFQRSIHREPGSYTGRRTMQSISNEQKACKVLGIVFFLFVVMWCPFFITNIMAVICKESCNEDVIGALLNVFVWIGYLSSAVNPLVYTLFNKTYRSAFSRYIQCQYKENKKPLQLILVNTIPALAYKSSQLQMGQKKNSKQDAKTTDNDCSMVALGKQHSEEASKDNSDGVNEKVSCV
(§3) After cell lysis, RNA from each sample was isolated and converted into cDNA by reverse transcription. […] This permits the mixing of all samples and sequencing of all pooled samples using a single sequencing run (Fig. 2b). The sample barcodes enable tracing experimental conditions, whereas the read counts per EXTs serve as quantitative measurements for the corresponding GPCRs. […] From the normalized data the fold changes of receptor activities were finally calculated.
(§4) In addition to the stimulation with the single compounds, a compound-mixture (mix) of all agonists was tested. The first set of experiments were carried out in the human osteosarcoma cell line U2OS. We normalized the raw sequencing data to total read numbers of sample codes, followed by averaging reads of internal and external calibrator EXTs as described above (Supplementary Fig. S4).
(§5) Next, we applied the multiplexed GPCRprofiler to measure the effects of GPCR targeting drugs on receptor activity. […] In addition, binding affinities to α-adrenergic receptors and the histamine receptor HRH1 were described for paliperidone using biochemical assays[38]–[40]. […] To address any changes in GPCR activities caused by the selected drugs, receptors were stimulated for 6 h applying two different parameters. First, to monitor agonistic effects, GPCRs were treated with the drugs only (Supplementary Fig. S1a). Second, to measure antagonistic effects, GPCRs were treated both with the drugs and the corresponding agonist (Supplementary Fig. S1b). This experimental design therefore allows to identify potential antagonistic effects of agonists and vice versa. For a profiling experiment, drugs were applied at increasing concentrations. […] Alternatively, a drug-induced inhibition of agonist-mediated GPCR activation specifies the drug as antagonist.
Cells were resuspended in culture medium without antibiotics at a density of 1.5 × 10^6 cells/ml (U2OS) or 3 × 10^6 cells/ml (PC12). […] Transfection-mixes were added to cell suspensions and incubated for 2 h at 37 °C without shaking. Suspensions were centrifuged for 5 min at 900 rpm and resuspended in culture medium to remove transfection reagents.

A further test deals with T3, histamine receptor HRH1.
T3 construct: ORFs of GPCRs were PCR amplified; expressed in transfected cells; host or cells: U2OS
In words: multiplexed GPCRprofiler assay in U2OS cells. The format is cell-based, human. The following applies: for drug-induced effect, GPCRprofiler: Supplementary Table S4, HRH1; for antagonistic effect on HRH1: U2OS cells, drug 1 h before agonist-mix (1 µM each). Here is the method: as §2, §3, §5
(§6) Cells were resuspended in culture medium without antibiotics at a density of 1.5 × 10^6 cells/ml (U2OS) or 3 × 10^6 cells/ml (PC12). […] Transfection-mixes were added to cell suspensions and incubated for 2 h at 37 °C without shaking. Suspensions were centrifuged for 5 min at 900 rpm and resuspended in culture medium to remove transfection reagents. All transfection samples were combined within one pool and plated on multiple wells of 6-well plates and incubated for 24 h at 37 °C. Afterwards, cells were starved for 17–18 h and then treated with compounds for 6 h in duplicates. After compound treatment cells were washed with PBS and 500 µl RLT lysis buffer was applied for cell lysis. Lysates were processed for sequencing as described below.
(§7) RNA was additional in solution treated with Turbo DNase (Ambion) for 30 min at 37 °C and repurified over an RNeasy column. First-strand cDNA synthesis was performed with 1 µg total RNA using superscript III reverse transcriptase (Invitrogen) and 120 pmol of a random nanomer primer. […] On order to differentiate different samples 13mer barcodes were introduced between 5′ Ion adapter and target sequence. All processed samples of an experiment were combined within one pool and purified using PCR clean-up kit (Macherey-Nagel).
(§8) Raw sequencing data analyses were done by using BLAST algorithm and in-house developed R scripts.

In test [4] the test system is T4, α-adrenergic receptor ADRA2B.
T4 construct: ORFs of GPCRs were PCR amplified; expressed in transfected cells; host or cells: U2OS (multiplexed assays)
In words: multiplexed GPCRprofiler assay in U2OS cells. The class given is cell-based, human. As for the experimental part: as §2, §3, §5, §6, §7, §8

For test [5], the system named is T5, α-adrenergic receptor ADRA2C.
T5 construct: ORFs of GPCRs were PCR amplified; expressed in transfected cells; host or cells: U2OS
As to the kind of experiment: multiplexed GPCRprofiler assay in U2OS cells. The class given is cell-based, human. Particulars: for drug-induced effect, GPCRprofiler: Supplementary Table S4, ADRA2C; for antagonistic effect on ADRA2C: U2OS cells, drug 1 h before agonist-mix (1 µM each). As for the experimental part:
as §2, §3, §5, §6, §7, §8

For test [6], the system named is HTR2A. Particulars: cited from earlier work; for drug effect, PubChem: ref PubChem, Supplementary refs 1, 4–6, 8,9.
The test system of the next test is DRD2. Particulars: ref PubChem, Supplementary refs 1, 4,5, 12–14; cited from earlier work.
For the next test, the system named is ADRA2B. More on the design: method as in PubChem, Supplementary refs 1, 6, 17. The following applies: ref PubChem, Supplementary refs 1, 6, 17; cited from earlier work.
A further test has as its system HRH1. The following applies: cited from earlier work; for drug effect, IUPHAR: ref IUPHAR, Supplementary refs 2,3, 7, 10.
Test [7] has as its system dopamine and the adrenergic receptors. The following applies: U2OS cells, agonist 100 pM to 100 µM. As for the experimental part: as §2, §3, §4, §6
(§9) RNA was additional in solution treated with Turbo DNase (Ambion) for 30 min at 37 °C and repurified over an RNeasy column. […]

The next test concerns serotonin receptor HTR5A. Particulars: U2OS cells (not in PC12 cells). As for the experimental part: as §2, §3, §4, §6, §9
The target in test [8] is T2, serotonin receptor HTR2A. The following applies: PC12 cells. As for the experimental part: as §2, §3
Cells were resuspended in culture medium without antibiotics at a density of 1.5 × 10^6 cells/ml (U2OS) or 3 × 10^6 cells/ml (PC12). […] Transfection-mixes were added to cell suspensions and incubated for 2 h at 37 °C without shaking. Suspensions were centrifuged for 5 min at 900 rpm and resuspended in culture medium to remove transfection reagents. All transfection samples were combined within one pool and plated on multiple wells of 6-well plates and incubated for 24 h at 37 °C. Afterwards, cells were starved for 17–18 h and then treated with compounds for 6 h in duplicates. […]

Another test concerns T6, serotonin receptor HTR1A.
T6 construct: ORFs of GPCRs were PCR amplified; HA-Flag signal peptide (N); expressed in transfected cells; host or cells: U2OS
In words: multiplexed GPCRprofiler assay in U2OS cells. The class given is cell-based, human. Particulars: multiplexed GPCR assay. As for the experimental part: as §2, §3, §5, §6, §7, §8

A further test deals with ADRA2C. More on the design: method as in PubChem, Supplementary refs 1, 17. Particulars: ref PubChem, Supplementary refs 1, 17; cited from earlier work.
Test [9] relates to HTR2A. Particulars: GF62 cells; cited from earlier work.
Setting [10] is: U2OS cells, drug 1 h before agonist-mix (1 µM each).

Chain of HTR2A serotonin receptor (P28223 81-471 limits assumed): as above

With `Cc1nc2n(c(=O)c1CCN1CCC(c3noc4cc(F)ccc34)CC1)CCCC2O` (stereo not shown) [Paliperidone], the 50% inhibitory concentration (IC50) on HTR2A serotonin receptor was determined as 3.65 nM; on dopamine receptor DRD2 [1], 188 nM. Besides, the “drug-induced effect, GPCRprofiler” value on dopamine receptor DRD2 [2] (Supplementary Table S4, DRD2) is listed as “Antagonist”; at serotonin receptor HTR2A [3] (Supplementary Table S4, HTR2A), “Antagonist”; in the test with histamine receptor HRH1, “Antagonist”; in [4] (Supplementary Table S4, ADRA2B), “Antagonist”; in [5] it was “Antagonist”. Also, the “antagonistic effect on DRD2” value on dopamine receptor DRD2 [2] (setting [10]) is listed as “dose-dependent inhibition of receptor activity”. The “antagonistic effect on HTR2A” value at serotonin receptor HTR2A [3] (setting [10]) is listed as “dose-dependent inhibition of receptor activity”. For the same compound, in the test with histamine receptor HRH1, the “antagonistic effect on HRH1” value is “dose-dependent inhibition of receptor activity”. Also, the “antagonistic effect on ADRA2B” value in [4] (setting [10]) is “dose-dependent inhibition of receptor activity”. Further, the “antagonistic effect on ADRA2C” value in test [5] is “dose-dependent inhibition of receptor activity”. For the same compound, the “drug effect, IUPHAR” value in the test on HTR2A [6] (ref IUPHAR, Supplementary refs 2,3, 7, 10,11) is “Antagonist”; in the test with HRH1, “Antagonist”. Moreover, the “drug effect, PubChem” value with HTR2A [6], with DRD2 and in the test on ADRA2B was “Antagonist” in each case.
`NCCc1ccc(O)c(O)c1` [Dopamine, Dopamine hydrochloride]: the “activation of HTR2A by non-cognate agonist” value on serotonin receptor HTR2A [3] (U2OS cells) and on serotonin receptor HTR2A [8] was “activation” throughout. Besides, in test [7], the “signals of both receptor subfamilies (dopamine and adrenergic) upon stimulation” value is “elevated signals”. For the same compound, the “activation of HTR5A by non-cognate agonist” value with serotonin receptor HTR5A is “activated by dopamine in U2OS cells only”.
Turning to `O=C1CCc2ccc(OCCCCN3CCN(c4cccc(Cl)c4Cl)CC3)cc2N1` [Aripiprazole], the “agonistic effect on HTR2A (drug alone)” value is reported as “concentration-dependent agonistic effect” at serotonin receptor HTR2A [3] (U2OS cells) and “subtle agonistic effects” on serotonin receptor HTR2A [3] (U2OS cells, listed as aripiprazole). The “drug-induced effect, GPCRprofiler” value (in the test on histamine receptor HRH1; in [5]) was “Antagonist” each time. For the same compound, the “antagonistic effect on HRH1” value with histamine receptor HRH1 is listed as “inhibited”. The “partial agonism on HTR1A” value in the test with serotonin receptor HTR1A was “not detected”. Also, in test [5], the “antagonistic effect on ADRA2C” value is on record as “inhibited”. Also, the “drug effect, PubChem” value in the test with HTR2A [6] was “Antagonist”; in the test with ADRA2B, “Antagonist”; in the test with ADRA2C, “Antagonist”; with HRH1 (ref PubChem, Supplementary refs 1, 4–6, 17), “Antagonist”. For the same compound, the “drug effect, IUPHAR” value with HRH1 was “Antagonist”. In the test with HTR2A [9], the “effect on HTR2A reported in the literature” value was “weak partial agonistic effect”.
